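Cells were grown in 96-well plates and exposed to each compound for 48 hours at five concentrations; endpoints were interpolated linearly between bracketing concentrations, or set to the highest concentration if not reached. At the GI50, growth is halved. TGI: concentration producing complete growth inhibition.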
Columns and labels:
Assay in all cases: NCI-60 cell line screen, 48 h
OVCAR-4 ovarian = test system: OVCAR-4 ovarian
SF-539 CNS = test system: SF-539 CNS
CAKI-1 renal = test system: CAKI-1 renal
NCI/ADR-RES ovarian = test system: NCI/ADR-RES ovarian
OVCAR-8 ovarian = test system: OVCAR-8 ovarian
ACHN renal = test system: ACHN renal
HCT-15 colon = test system: HCT-15 colon
RPMI-8226 leukemia = test system: RPMI-8226 leukemia
SN12C renal = test system: SN12C renal
SK-OV-3 ovarian = test system: SK-OV-3 ovarian
HCT-116 colon = test system: HCT-116 colon
RXF 393 renal = test system: RXF 393 renal
NCI-H23 lung = test system: NCI-H23 lung
HOP-92 NSCLC = test system: HOP-92 NSCLC
OVCAR-5 ovarian = test system: OVCAR-5 ovarian
A549 NSCLC = test system: A549 NSCLC
M14 melanoma = test system: M14 melanoma
HCC-2998 colon = test system: HCC-2998 colon
T-47D breast = test system: T-47D breast
HOP-62 NSCLC = test system: HOP-62 NSCLC
BT-549 breast = test system: BT-549 breast
HS 578T breast = test system: HS 578T breast
A498 renal = test system: A498 renal
NCI-H460 lung = test system: NCI-H460 lung
PC-3 prostate = test system: PC-3 prostate
K-562 leukemia = test system: K-562 leukemia
NCI-H522 lung = test system: NCI-H522 lung
MDA-MB-231 breast = test system: MDA-MB-231 breast
MDA-MB-435 = test system: MDA-MB-435
U251 CNS = test system: U251 CNS
SF-295 CNS = test system: SF-295 CNS
CCRF-CEM leukemia = test system: CCRF-CEM leukemia
DU-145 prostate = test system: DU-145 prostate
HL-60(TB) leukemia = test system: HL-60(TB) leukemia
COLO 205 colon = test system: COLO 205 colon
HT29 colon = test system: HT29 colon
UACC-62 melanoma = test system: UACC-62 melanoma
MDA-MB-468 breast = test system: MDA-MB-468 breast
OVCAR-3 ovarian = test system: OVCAR-3 ovarian
UO-31 renal = test system: UO-31 renal
MCF7 breast = test system: MCF7 breast
KM12 colon = test system: KM12 colon
MOLT-4 leukemia = test system: MOLT-4 leukemia
EKVX NSCLC = test system: EKVX NSCLC
TK-10 renal = test system: TK-10 renal
SK-MEL-2 melanoma = test system: SK-MEL-2 melanoma
IGROV1 ovarian = test system: IGROV1 ovarian
NCI-H226 lung = test system: NCI-H226 lung
SW-620 colon = test system: SW-620 colon
SF-268 CNS = test system: SF-268 CNS
MALME-3M melanoma = test system: MALME-3M melanoma
LOX IMVI melanoma = test system: LOX IMVI melanoma
786-0 renal = test system: 786-0 renal
SNB-75 CNS = test system: SNB-75 CNS
SK-MEL-28 melanoma = test system: SK-MEL-28 melanoma
UACC-257 melanoma = test system: UACC-257 melanoma
SK-MEL-5 melanoma = test system: SK-MEL-5 melanoma
SNB-19 CNS = test system: SNB-19 CNS

In the case of `CN(C)c1nc(NCCNS(=O)(=O)c2ccc(C(=O)/C=C/c3ccc(F)cc3)cc2)nc(Nc2ccc(F)cc2)n1`, the GI50 (OVCAR-4 ovarian) is reported as 3.68 µM, the TGI (OVCAR-4 ovarian) is reported as 15.6 µM and the GI50 (SF-539 CNS) is reported as 2520 nM. For the same molecule, the TGI (SF-539 CNS) was 6.78 µM, the GI50 (CAKI-1 renal) was 3.01 µM and the TGI (CAKI-1 renal) was 12.7 µM. It also gave a GI50 (NCI/ADR-RES ovarian) of 3.25 µM, a TGI (NCI/ADR-RES ovarian) of 11.6 µM and a GI50 (OVCAR-8 ovarian) of 3.42 µM. It also gave a TGI (OVCAR-8 ovarian) of 13.9 µM, a GI50 (ACHN renal) of 3.13 µM and a TGI (ACHN renal) of 10.9 µM. It also gave a GI50 (HCT-15 colon) of 1990 nM, a TGI (HCT-15 colon) of 4.28 µM and a GI50 (RPMI-8226 leukemia) of 2420 nM. The TGI (RPMI-8226 leukemia) was 6.92 µM, the GI50 (SN12C renal) was 1700 nM and the TGI (SN12C renal) was 3.36 µM. For the same molecule, the GI50 (SK-OV-3 ovarian) was 8.23 µM, the TGI (SK-OV-3 ovarian) was 21.6 µM and the GI50 (HCT-116 colon) was 1600 nM. It also gave a TGI (HCT-116 colon) of 3.01 µM, a GI50 (RXF 393 renal) of 2260 nM and a TGI (RXF 393 renal) of 7.51 µM. The GI50 (NCI-H23 lung) was 4.17 µM, the TGI (NCI-H23 lung) was 15.6 µM and the GI50 (HOP-92 NSCLC) was 2490 nM. For the same molecule, the TGI (HOP-92 NSCLC) was 6.51 µM, the GI50 (OVCAR-5 ovarian) was 3.39 µM and the TGI (OVCAR-5 ovarian) was 15 µM. For the same molecule, the GI50 (A549 NSCLC) was 3.41 µM, the TGI (A549 NSCLC) was 14.2 µM and the GI50 (M14 melanoma) was 2600 nM. The TGI (M14 melanoma) was 8.29 µM, the GI50 (HCC-2998 colon) was 1800 nM and the TGI (HCC-2998 colon) was 3.45 µM. For the same molecule, the GI50 (T-47D breast) was 3.02 µM, the TGI (T-47D breast) was 11.7 µM and the GI50 (HOP-62 NSCLC) was 8.39 µM. It also gave a TGI (HOP-62 NSCLC) of 23.6 µM, a GI50 (BT-549 breast) of 4.87 µM and a TGI (BT-549 breast) of 17.1 µM. For the same molecule, the GI50 (HS 578T breast) was 6.3 µM, the TGI (HS 578T breast) was 71.5 µM and the GI50 (A498 renal) was 6.21 µM. For the same molecule, the TGI (A498 renal) was 19.3 µM, the GI50 (NCI-H460 lung) was 2450 nM and the TGI (NCI-H460 lung) was 6.92 µM. The GI50 (PC-3 prostate) was 2760 nM, the TGI (PC-3 prostate) was 10.6 µM and the GI50 (K-562 leukemia) was 2420 nM. For the same molecule, the TGI (K-562 leukemia) was 6.8 µM, the GI50 (NCI-H522 lung) was 2810 nM and the TGI (NCI-H522 lung) was 8.9 µM. The GI50 (MDA-MB-231 breast) was 2640 nM, the TGI (MDA-MB-231 breast) was 8.38 µM and the GI50 (MDA-MB-435) was 2320 nM. The TGI (MDA-MB-435) was 5.69 µM, the GI50 (U251 CNS) was 1990 nM and the TGI (U251 CNS) was 4.41 µM. The GI50 (SF-295 CNS) was 3.4 µM, the TGI (SF-295 CNS) was 13 µM and the GI50 (CCRF-CEM leukemia) was 3.42 µM. The TGI (CCRF-CEM leukemia) was > 100 µM, the GI50 (DU-145 prostate) was 3.94 µM and the TGI (DU-145 prostate) was 14 µM. The GI50 (HL-60(TB) leukemia) was 2040 nM, the TGI (HL-60(TB) leukemia) was 6.34 µM and the GI50 (COLO 205 colon) was 2380 nM. For the same molecule, the TGI (COLO 205 colon) was 6.56 µM, the GI50 (HT29 colon) was 1900 nM and the TGI (HT29 colon) was 3.65 µM. It also gave a GI50 (UACC-62 melanoma) of 3.57 µM, a TGI (UACC-62 melanoma) of 14.6 µM and a GI50 (MDA-MB-468 breast) of 2550 nM. It also gave a TGI (MDA-MB-468 breast) of 8.09 µM, a GI50 (OVCAR-3 ovarian) of 1740 nM and a TGI (OVCAR-3 ovarian) of 3.24 µM. It also gave a GI50 (UO-31 renal) of 2900 nM, a TGI (UO-31 renal) of 11.9 µM and a GI50 (MCF7 breast) of 1800 nM. For the same molecule, the TGI (MCF7 breast) was 3.46 µM, the GI50 (KM12 colon) was 2000 nM and the TGI (KM12 colon) was 4.41 µM. It also gave a GI50 (MOLT-4 leukemia) of 2500 nM, a TGI (MOLT-4 leukemia) of 6.5 µM and a GI50 (EKVX NSCLC) of 2950 nM. The TGI (EKVX NSCLC) was 10.9 µM, the GI50 (TK-10 renal) was 4.62 µM and the TGI (TK-10 renal) was 16.6 µM. The GI50 (SK-MEL-2 melanoma) was 2770 nM, the TGI (SK-MEL-2 melanoma) was 8.31 µM and the GI50 (IGROV1 ovarian) was 4.27 µM. The TGI (IGROV1 ovarian) was 15 µM, the GI50 (NCI-H226 lung) was 3.41 µM and the TGI (NCI-H226 lung) was 16.4 µM. The GI50 (SW-620 colon) was 1900 nM, the TGI (SW-620 colon) was 4.02 µM and the GI50 (SF-268 CNS) was 3.89 µM. For the same molecule, the TGI (SF-268 CNS) was 16.4 µM, the GI50 (MALME-3M melanoma) was 3.42 µM and the TGI (MALME-3M melanoma) was 12.4 µM. It also gave a GI50 (LOX IMVI melanoma) of 1660 nM, a TGI (LOX IMVI melanoma) of 3.07 µM and a GI50 (786-0 renal) of 2560 nM. The TGI (786-0 renal) was 6.3 µM, the GI50 (SNB-75 CNS) was 2880 nM and the TGI (SNB-75 CNS) was 16 µM. It also gave a GI50 (SK-MEL-28 melanoma) of 3.6 µM, a TGI (SK-MEL-28 melanoma) of 13.7 µM and a GI50 (UACC-257 melanoma) of 3.61 µM. It also gave a TGI (UACC-257 melanoma) of 15.2 µM, a GI50 (SK-MEL-5 melanoma) of 2910 nM and a TGI (SK-MEL-5 melanoma) of 11.1 µM. For the same molecule, the GI50 (SNB-19 CNS) was 4.58 µM and the TGI (SNB-19 CNS) was 16.8 µM.

Reference: PubChem BioAssay (NCI)
